Publication PMC11412156 (Journal of medicinal chemistry, 2024)
One block for each compound: values may come before it.

Columns and labels:
[1] = tested on: xylene-induced ear swelling inflammation in mice; test: Xylene-induced ear swelling inflammation model in mice; assay type: in vivo, Kunming mice; settings: Table 7 dose study, 10 mg/kg by gavage for 7 days
[2] = tested on: formalin-induced inflammatory pain in mice; test: Formalin-induced inflammatory pain model in mice; assay type: in vivo, Kunming mice; settings: dose study, Figure 15; 10 mg/kg, compared with the model group
HDAC6 = target: T1, HDAC6 (Homo sapiens, UniProt Q9UBN7); test: HDAC enzyme-based fluorogenic assay, HDAC6; assay type: biochemical; settings: final concentration of 2 μM, preliminary screen
T1 sequence (Q9UBN7 1-1215): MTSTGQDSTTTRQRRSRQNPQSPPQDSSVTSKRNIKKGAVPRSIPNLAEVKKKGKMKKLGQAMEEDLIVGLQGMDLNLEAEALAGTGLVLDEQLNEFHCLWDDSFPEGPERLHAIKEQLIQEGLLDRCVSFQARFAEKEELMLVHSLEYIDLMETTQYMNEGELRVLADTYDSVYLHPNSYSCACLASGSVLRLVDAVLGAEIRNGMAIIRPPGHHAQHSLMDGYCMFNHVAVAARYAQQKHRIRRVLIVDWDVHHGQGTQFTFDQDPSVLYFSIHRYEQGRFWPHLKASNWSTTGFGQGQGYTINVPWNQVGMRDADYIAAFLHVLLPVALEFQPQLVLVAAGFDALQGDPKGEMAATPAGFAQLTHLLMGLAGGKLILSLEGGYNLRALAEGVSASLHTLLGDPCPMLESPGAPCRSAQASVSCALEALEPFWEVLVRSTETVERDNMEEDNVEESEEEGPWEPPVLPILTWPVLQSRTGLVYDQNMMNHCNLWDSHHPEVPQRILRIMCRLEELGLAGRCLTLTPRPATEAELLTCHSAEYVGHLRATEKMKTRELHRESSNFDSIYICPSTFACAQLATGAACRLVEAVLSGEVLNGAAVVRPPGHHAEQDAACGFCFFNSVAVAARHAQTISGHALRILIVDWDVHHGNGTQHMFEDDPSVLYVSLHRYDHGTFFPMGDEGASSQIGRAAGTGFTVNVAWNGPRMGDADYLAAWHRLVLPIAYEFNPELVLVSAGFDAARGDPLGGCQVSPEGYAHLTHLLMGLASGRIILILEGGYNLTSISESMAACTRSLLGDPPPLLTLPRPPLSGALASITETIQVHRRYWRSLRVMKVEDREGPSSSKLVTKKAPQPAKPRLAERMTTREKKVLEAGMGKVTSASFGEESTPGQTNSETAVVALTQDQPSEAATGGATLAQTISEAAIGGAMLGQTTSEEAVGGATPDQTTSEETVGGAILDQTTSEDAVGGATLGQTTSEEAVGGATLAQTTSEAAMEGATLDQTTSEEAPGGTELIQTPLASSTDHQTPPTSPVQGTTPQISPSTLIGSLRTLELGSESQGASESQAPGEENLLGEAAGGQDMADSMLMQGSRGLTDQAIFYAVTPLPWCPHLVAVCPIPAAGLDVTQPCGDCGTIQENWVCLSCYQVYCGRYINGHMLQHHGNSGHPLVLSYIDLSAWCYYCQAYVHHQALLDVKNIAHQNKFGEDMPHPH

[3] = In vitro metabolic stability in rat liver microsomes; assay type: in vitro ADME; settings: for metabolic stability in RLM, column 0: incubation 0 min; for metabolic stability in RLM, column 0 / metabolic stability in RLM, column 10 / metabolic stability in RLM, column 30 / metabolic stability in RLM, column 45 / metabolic stability in RLM, column 60: 37 °C, NADPH; for metabolic stability in RLM, column 10: incubation 10 min; for metabolic stability in RLM, column 30: incubation 30 min; for metabolic stability in RLM, column 45: incubation 45 min; for metabolic stability in RLM, column 60: incubation 60 min; for t1/2 in RLM: rat liver microsomes
HsEH = target: T2, HsEH (Homo sapiens, UniProt P34913); test: fluorescent-based sEH assay with PHOME as substrate; assay type: biochemical
T2 sequence (P34913 1-555): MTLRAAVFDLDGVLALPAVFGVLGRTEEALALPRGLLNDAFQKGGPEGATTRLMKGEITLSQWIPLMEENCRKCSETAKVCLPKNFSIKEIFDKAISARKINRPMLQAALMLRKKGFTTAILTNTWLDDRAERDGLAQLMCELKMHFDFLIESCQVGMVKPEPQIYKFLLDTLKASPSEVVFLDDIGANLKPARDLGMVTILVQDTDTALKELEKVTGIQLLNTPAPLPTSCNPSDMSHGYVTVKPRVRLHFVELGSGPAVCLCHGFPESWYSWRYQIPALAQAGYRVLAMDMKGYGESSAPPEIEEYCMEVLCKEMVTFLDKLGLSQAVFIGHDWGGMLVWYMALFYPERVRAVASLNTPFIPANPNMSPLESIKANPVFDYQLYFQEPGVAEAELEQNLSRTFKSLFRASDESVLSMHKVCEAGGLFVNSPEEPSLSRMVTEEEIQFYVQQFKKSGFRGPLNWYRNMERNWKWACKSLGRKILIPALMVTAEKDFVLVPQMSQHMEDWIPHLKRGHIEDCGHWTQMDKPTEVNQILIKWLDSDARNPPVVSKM

MsEH = target: T3, MsEH (Mus musculus, UniProt P34914); test: as above; assay type: biochemical
T3 sequence (P34914 1-554): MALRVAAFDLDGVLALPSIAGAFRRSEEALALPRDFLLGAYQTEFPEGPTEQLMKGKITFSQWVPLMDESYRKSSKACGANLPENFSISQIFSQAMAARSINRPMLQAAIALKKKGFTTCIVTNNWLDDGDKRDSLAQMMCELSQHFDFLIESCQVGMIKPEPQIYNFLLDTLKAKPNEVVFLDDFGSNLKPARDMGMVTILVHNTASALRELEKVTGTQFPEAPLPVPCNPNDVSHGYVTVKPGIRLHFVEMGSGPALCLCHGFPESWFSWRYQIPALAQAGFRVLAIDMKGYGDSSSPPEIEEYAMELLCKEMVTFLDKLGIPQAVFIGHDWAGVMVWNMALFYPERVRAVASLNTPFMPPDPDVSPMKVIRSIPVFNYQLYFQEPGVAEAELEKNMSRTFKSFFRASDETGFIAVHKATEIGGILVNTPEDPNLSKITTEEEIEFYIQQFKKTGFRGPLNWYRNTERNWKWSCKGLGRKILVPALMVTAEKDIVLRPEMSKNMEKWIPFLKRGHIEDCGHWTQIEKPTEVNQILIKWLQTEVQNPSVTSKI

Compound: Cc1ccc(-c2cc(C(F)(F)F)nn2-c2ccc(S(N)(=O)=O)cc2)cc1 [Celecoxib, reference compound]
Inhibition rate [1]: 32.83%
Swelling degree [1]: 10.5 ± 1.5 mg
Swelling rate [1]: 74.21%
pain response, second phasic response [2]: reduced the pain response

Compound: C[C@]12C[C@@H]3C[C@](C)(C1)C[C@@](NC(=O)Nc1ccc(C(=O)N4CCC[C@H](C(=O)NCCCCCCC(=O)NO)C4)cc1F)(C3)C2 [Compound 7d, (S)-1-(4-(3-((1r,3R,5S,7S)-3,5-Dimethyladamantan-1-yl)ureido)-3-fluorobenzoyl)-N-(7-(hydroxyamino)-7-oxoheptyl)piperidine-3-carboxamide]
HDAC6 inhibitor rate (HDAC6): 63%

Compound: C[C@]12C[C@@H]3C[C@](C)(C1)C[C@@](NC(=O)Nc1ccc(CN4CCC[C@H](C(=O)NCCCCCCC(=O)NO)C4)cc1F)(C3)C2 [Compound 16d, (S)-1-(4-(3-((1r,3R,5S,7S)-3,5-Dimethyladamantan-1-yl)ureido)-3-fluorobenzyl)-N-(7-(hydroxyamino)-7-oxoheptyl)piperidine-3-carboxamide]
metabolic stability in RLM, column 0 [3]: 100.00
metabolic stability in RLM, column 10 [3]: 89.16
metabolic stability in RLM, column 30 [3]: 79.33
metabolic stability in RLM, column 45 [3]: 52.13
metabolic stability in RLM, column 60 [3]: 46.62
t1/2 in RLM [3]: 0.8165 h
HDAC6 inhibitor rate (HDAC6): 63%

Compound: O=C(CCCCCCNC(=O)[C@H]1CCCN(C(=O)c2ccc(NC(=O)Nc3ccc(OC(F)(F)F)c(F)c3)c(F)c2)C1)NO [Compound 28a, (S)-1-(3-Fluoro-4-(3-(3-fluoro-4-(trifluoromethoxy)phenyl)ureido)benzoyl)-N-(7-(hyd-roxyamino)-7-oxoheptyl)piperidine-3-carboxamide]
HDAC6 inhibitor rate (HDAC6): > 91%

IC50 (HsEH): 0.7 nM
IC50 (MsEH): 5.4 nM
Compound: O=C(CCCCCCNC(=O)[C@H]1CCCN(C(=O)c2ccc(NC(=O)Nc3ccc(F)c(Cl)c3)c(F)c2)C1)NO [Compound 28e, (S)-1-(4-(3-(3-Chloro-4-fluorophenyl)ureido)-3-fluorobenzoyl)-N-(7-(hydroxyamino)-7-oxoheptyl)piperidine-3-carboxamide]

HDAC6 inhibitor rate (HDAC6): > 91%
IC50 (HsEH): 0.7 nM
IC50 (MsEH): 7.4 nM
Compound: Cc1ccc(NC(=O)Nc2ccc(C(=O)N3CCC[C@H](C(=O)NCCCCCCC(=O)NO)C3)cc2F)cc1F [Compound 28h, (S)-1-(3-Fluoro-4-(3-(3-fluoro-4-methylphenyl)ureido)benzoyl)-N-(7-(hydroxyamino)-7-oxoheptyl)piperidine-3-carboxamide]

IC50 (HsEH): 1.2 nM
IC50 (MsEH): 7.7 nM
Compound: Cc1cc(NC(=O)Nc2ccc(C(=O)N3CCC[C@H](C(=O)NCCCCCCC(=O)NO)C3)cc2F)ccc1F [Compound 28i, (S)-1-(3-Fluoro-4-(3-(4-fluoro-3-methylphenyl)ureido)benzoyl)-N-(7-(hydroxyamino)-7-oxoheptyl)piperidine-3-carboxamide]

Compound: O=C(CCCCCCNC(=O)[C@H]1CCCN(C(=O)c2ccc(NC(=O)NC(c3ccccc3)c3ccccc3)c(F)c2)C1)NO [Compound 28k, (S)-1-(4-(3-Benzhydrylureido)-3-fluorobenzoyl)-N-(7-(hydroxyamino)-7-oxoheptyl) piperidine-3-carboxamide]
HDAC6 inhibitor rate (HDAC6): 63.58%

Compound: CC12CC3CC(C)(C1)CC(Nc1c(Nc4ccc(CN5CCC[C@H](C(=O)NCCCCCCC(=O)NO)C5)cc4F)c(=O)c1=O)(C3)C2 [Compound 34d, (S)-1-(4-((2-(((1r,3R,5S,7r)-3,5-Dimethyladamantan-1-yl)amino)-3,4-dioxocyclobut-1-en-1-yl)amino)-3-fluorobenzyl)-N-(7-(hydroxyamino)-7-oxoheptyl)piperidine-3-carb-oxamide]
metabolic stability in RLM, column 0 [3]: 100.00
metabolic stability in RLM, column 10 [3]: 82.82
metabolic stability in RLM, column 30 [3]: 73.29
metabolic stability in RLM, column 45 [3]: 66.27
metabolic stability in RLM, column 60 [3]: 50.51
t1/2 in RLM [3]: 1.223 h
